Measurements from patent publication US20200246308A1, “SYNERGISTIC COMBINATIONS OF UROLITHINS A AND B FOR IMPROVING COGNITIVE CAPACITY OR COGNITIVE FUNCTION” (Natreon, Inc., priority 2018, published 2020).

Columns and labels:
Format in all cases: in vivo, Male Wistar rats
[1] = system: scopolamine induced amnesic rat model; experiment: Y-maze test, scopolamine induced amnesic rat model (Example 9A); details: scopolamine 1 mg/kg i.p.; for Curiosity behavior (total arm entries), trial-1 and trial-2 / Spatial recognition memory (known vs novel arm entries %), trial-2: p.o. 7 days: B 50, A 50, B:A 10:50 and 50:50 mg/kg; for Curiosity behavior (total arm entries), trial-1 and trial-2: Shilajit 25 mg/kg b.i.d; for Coping behavior to novel environment (% time in novel arm), trial-2: p.o. 7 days: B 50, A 50, B:A 10:50 and 50:50, Shilajit 50 mg/kg
Protocol: (§1) The experiment was conducted in accordance with the Principles of laboratory animal care. Male Wistar rats (200-250 g) were purchased from the Central Animal House, Institute of Medical Sciences, Banaras Hindu University (BHU), Varanasi, India. Experiments on animals were approved by the Institutional Animal Ethics Committee of BHU, Varanasi, India. The animals were housed in polypropylene cages under controlled environmental conditions of temperature of 25±1° C. and 45-55% relative humidity and a 12:12 h light/dark cycle. The experimental animals had free access to commercial rat feed and water ad libitum during the experiment. Animals were acclimatized for at least one week before using them for experiments and exposed only once to the experiment.
(§2) Rats were randomly allocated into eight study groups containing six in each group (n=6), as follows:
(§3) Drug solution was freshly prepared in 0.3% CMC and administered by oral gavage once a day, for a period of 7 days. Briefly, the whole experiment was conducted for 8 days. Scopolamine (1 mg/kg), a muscarinic receptor antagonist, was dissolved in normal saline (0.9% NaCl) and administered intraperitoneally 1 h after drugs administration on seventh day.
Assessment of short term memory by Y maze test paradigm. The Y-maze test was performed essentially to assess spatial recognition memory, general exploratory behavior and anxiety-like behavior by following the standard protocol (Dellu, F., Mayo, W., Cherkaoui, J., Le Moal, M., Simon, H., “A two-trial memory task with automated recording: study in young and aged rats,” Brain Res. (1992) 588: 132-139). The Y-maze apparatus consists of three identical arms (50 cm long, 16 cm wide and 32 cm high) at 120° angles to each other, radiating out from a central point. Visual cues made from colored construction paper and laboratory glassware were placed around the perimeter of the maze and above the top of the black plexiglass sides and these cues were not repeated for each test to maintain novelty to the animals. The novel arm of the Y-maze was blocked and rats were allowed to visit the other two arms of the maze for 15 min. Four hours after the first phase, animals had free access to all three arms for 5 min. The number of entries in each arm was recorded for a 5-min period. The dependent variables such as the total number of entries in all arms (for the 5 min of trial 1 and 2), the % entries in known and novel arms for the 5 min period of trial 2 and the percentage of ratio of time spent in novel arm to time spent in all the arms and in the center of the apparatus during trial 2 were measured. The total number of entries in all arms (for the 5 min of trial 1 and 2) is indicative of general exploration attitude (curiosity) and the % entries in known versus novel arm for the 5 min period of trial 2 is considered as a measure of arm discrimination (spatial recognition memory). Coping strategy or behavior to novel environment was estimated by the percentage of time spent in novel arm to time spent in all arms and in the center of the apparatus during trial 2. The decrease in the coping behavior to novel environment was considered as increase in anxiety-like behavior. An arm entry was counted when the head and two front paws were inside the arm, and duration of an arm visit was ended when the head and two front paws were outside the arm again.

[2] = system: acetylcholine (ACh) level in HIP tissue; experiment: Acetylcholine level in hippocampal tissue, Amplex Red kit (Example 9D); details: p.o. 7 days: B 50, A 50, Donepezil 3, B:A 10:50 and 50:50, Shilajit 50 mg/kg
Protocol: as §3
Sample preparation: The animals were killed by decapitation and the brain tissues were dissected out in ice-cold conditions and stored at −80° C. until use. Tissue was homogenized in 1.0 ml of 0.1M perchloric acid with a Potter-Elvehjem homogenizer. The homogenate was kept in the polypropylene tubes for 15 min after which 40 μl of 4M potassium acetate was added to adjust the pH to 4.0 followed by centrifugation for 15 min at 4000×g. Supernatant was used to estimate acetylcholine and AChE activities.
Samples were prepared as in Example 9C. The amount of acetylcholine in brain tissues was measured using Amplex red assay kit (Molecular Probes, Inc., USA). An acetylcholine standard curve was used in each experiment. Briefly, the reactions are initiated by adding 0.1 ml of control (10 μM H2O2) and tissue homogenates were taken in two separate polypropylene tubes and then 0.1 ml working solution of 400 μM Amplex Red reagent containing 2 U/mL HRP, 0.2 U/mL choline oxidase and 1 U/mL acetylcholinesterase were added to each tube. After incubation for 45 min, the fluorescence was recorded with the help of spectrofluorometer at 530 nm excitation and 590 nm emission wavelengths. The protein content was determined using standard protocol (Lowry, et al., 1951).
Statistical analyses: The results were expressed as means±Standard Error mean (SEM). The intergroup variation was measured by one-way ANOVA followed by Student-Newman-Keuls test. Two-way followed by Bonferroni test was employed to discover the intergroup variation in Y maze test considering groups and arms as two independent variables. Statistical analysis was done by using Graph Pad prism version 5 (San Diego, Calif.). A level of p<0.05 was accepted as statistically significant.

[3] = system: scopolamine induced amnesic rat model; experiment: Passive avoidance test, scopolamine induced amnesic rat model (Example 9B); details: p.o. 7 days: B 50, A 50, B:A 10:50 and 50:50 mg/kg, Shilajit 25 mg/kg b.i.d; scopolamine 1 mg/kg i.p.
Protocol: as §1, §2
Drug solution was freshly prepared in 0.3% CMC and administered by oral gavage once a day, for a period of 7 days. Briefly, the whole experiment was conducted for 8 days. […]
Passive avoidance (PA) test: The PA task is a fear-aggravated test used to evaluate learning and memory in rodent models of CNS disorders. […] The transfer of the animal from one compartment to another was recorded and transfer latency time (TLT) was calculated in seconds. […]

Compound	Curiosity behavior (total arm entries), trial-1 and trial-2 [1]	Spatial recognition memory (known vs novel arm entries %), trial-2 [1]	Coping behavior to novel environment (% time in novel arm), trial-2 [1]	Scopolamine-induced decrease in ACh level in HIP tissue [2]	Transfer latency time (TLT), retention trial vs acquisition trial [3]
O=c1oc2cc(O)ccc2c2ccccc12 [Urolithin B, 3-hydroxy-dibenzo-alpha-pyrone]	attenuated the scopolamine induced decrease in curiosity behavior	significantly reversed the scopolamine induced failed the discrimination behavior but not similar as to the vehicle group	attenuated the scopolamine-induced decrease in coping strategy to a novel environment but not similar to that vehicle group	attenuated the scopolamine induced decrease in ACh level	significant increase in TLT of retention trial in comparison to acquisition trial but less effective as compared to the vehicle treated group
O=c1oc2cc(O)ccc2c2ccc(O)cc12 [Urolithin A, 3,8-dihydroxy-dibenzo-alpha-pyrone]	attenuated the scopolamine induced decrease in curiosity behavior	significantly reversed the scopolamine induced failed the discrimination behavior but not similar as to the vehicle group	attenuated the scopolamine-induced decrease in coping strategy to a novel environment but not similar to that vehicle group	attenuated the scopolamine induced decrease in ACh level	significant increase in TLT of retention trial in comparison to acquisition trial but less effective as compared to the vehicle treated group
